In PubChem BioAssay (NCI):
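Values below derive from 48-hour exposures of cells grown in 96-well plates, with endpoints linearly interpolated between the two concentrations bracketing the appropriate inhibition level. GI50 is the concentration that inhibits growth by half. TGI: concentration producing complete growth inhibition.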

Tests used:
Experiment in all cases: DTP human tumour cell line panel, 48 h
HCC-2998 colon = system: HCC-2998 colon
PC-3 prostate = system: PC-3 prostate
UO-31 renal = system: UO-31 renal
TK-10 renal = system: TK-10 renal
OVCAR-5 ovarian = system: OVCAR-5 ovarian
SN12C renal = system: SN12C renal
MALME-3M melanoma = system: MALME-3M melanoma
CAKI-1 renal = system: CAKI-1 renal
786-0 renal = system: 786-0 renal
NCI-H522 lung = system: NCI-H522 lung
MCF7 breast = system: MCF7 breast
A549 NSCLC = system: A549 NSCLC
ACHN renal = system: ACHN renal
SNB-19 CNS = system: SNB-19 CNS
HT29 colon = system: HT29 colon
A498 renal = system: A498 renal
RXF 393 renal = system: RXF 393 renal
SK-MEL-5 melanoma = system: SK-MEL-5 melanoma
SF-539 CNS = system: SF-539 CNS
NCI-H23 lung = system: NCI-H23 lung
MDA-MB-435 = system: MDA-MB-435
HCT-15 colon = system: HCT-15 colon
DU-145 prostate = system: DU-145 prostate
COLO 205 colon = system: COLO 205 colon
T-47D breast = system: T-47D breast
OVCAR-3 ovarian = system: OVCAR-3 ovarian
CCRF-CEM leukemia = system: CCRF-CEM leukemia
BT-549 breast = system: BT-549 breast
UACC-62 melanoma = system: UACC-62 melanoma
K-562 leukemia = system: K-562 leukemia
SK-MEL-28 melanoma = system: SK-MEL-28 melanoma
SNB-75 CNS = system: SNB-75 CNS
SK-MEL-2 melanoma = system: SK-MEL-2 melanoma
NCI-H226 lung = system: NCI-H226 lung
RPMI-8226 leukemia = system: RPMI-8226 leukemia
OVCAR-8 ovarian = system: OVCAR-8 ovarian
U251 CNS = system: U251 CNS
KM12 colon = system: KM12 colon
NCI-H460 lung = system: NCI-H460 lung
SF-268 CNS = system: SF-268 CNS
LOX IMVI melanoma = system: LOX IMVI melanoma
IGROV1 ovarian = system: IGROV1 ovarian
HOP-62 NSCLC = system: HOP-62 NSCLC
M14 melanoma = system: M14 melanoma
SF-295 CNS = system: SF-295 CNS
MOLT-4 leukemia = system: MOLT-4 leukemia
SR leukemia = system: SR leukemia
HS 578T breast = system: HS 578T breast
HCT-116 colon = system: HCT-116 colon
HOP-92 NSCLC = system: HOP-92 NSCLC
NCI/ADR-RES ovarian = system: NCI/ADR-RES ovarian
EKVX NSCLC = system: EKVX NSCLC
UACC-257 melanoma = system: UACC-257 melanoma
SW-620 colon = system: SW-620 colon
MDA-MB-231 breast = system: MDA-MB-231 breast

Compound `Cc1ccc(N(/C=C/C(=O)C(F)(F)F)CC(=O)c2ccc(Cl)c(Cl)c2)cc1` has a GI50 (HCC-2998 colon) of 1.45 µM, a TGI (HCC-2998 colon) of 14.8 µM and a GI50 (PC-3 prostate) of 7.06 µM. The TGI (PC-3 prostate) was 20 µM, the GI50 (UO-31 renal) was 5.77 µM and the TGI (UO-31 renal) was 19.1 µM. It also gave a GI50 (TK-10 renal) of 12.1 µM, a TGI (TK-10 renal) of 24.5 µM and a GI50 (OVCAR-5 ovarian) of 4.7 µM. For the same compound, the TGI (OVCAR-5 ovarian) was 20.6 µM, the GI50 (SN12C renal) was 13.1 µM and the TGI (SN12C renal) was 25.8 µM. It also gave a GI50 (MALME-3M melanoma) of 6 µM, a TGI (MALME-3M melanoma) of 20.6 µM and a GI50 (CAKI-1 renal) of 12.4 µM. It also gave a TGI (CAKI-1 renal) of 24.9 µM, a GI50 (786-0 renal) of 13.5 µM and a TGI (786-0 renal) of 26.3 µM. The GI50 (NCI-H522 lung) was 5.16 µM, the TGI (NCI-H522 lung) was 17.8 µM and the GI50 (MCF7 breast) was 7.27 µM. For the same compound, the TGI (MCF7 breast) was 20.2 µM, the GI50 (A549 NSCLC) was 9.37 µM and the TGI (A549 NSCLC) was 21.3 µM. The GI50 (ACHN renal) was 12.2 µM, the TGI (ACHN renal) was 24.6 µM and the GI50 (SNB-19 CNS) was 12.9 µM. It also gave a TGI (SNB-19 CNS) of 25.5 µM, a GI50 (HT29 colon) of 4.73 µM and a TGI (HT29 colon) of 17.9 µM. For the same compound, the GI50 (A498 renal) was 8.05 µM, the TGI (A498 renal) was 20.9 µM and the GI50 (RXF 393 renal) was 3.82 µM. It also gave a TGI (RXF 393 renal) of 19 µM, a GI50 (SK-MEL-5 melanoma) of 5.64 µM and a TGI (SK-MEL-5 melanoma) of 19.6 µM. It also gave a GI50 (SF-539 CNS) of 2.77 µM, a TGI (SF-539 CNS) of 17 µM and a GI50 (NCI-H23 lung) of 10.3 µM. The TGI (NCI-H23 lung) was 21.9 µM, the GI50 (MDA-MB-435) was 1.92 µM and the TGI (MDA-MB-435) was 3.82 µM. The GI50 (HCT-15 colon) was 3.64 µM, the TGI (HCT-15 colon) was 14.5 µM and the GI50 (DU-145 prostate) was 5.77 µM. For the same compound, the TGI (DU-145 prostate) was 20.3 µM, the GI50 (COLO 205 colon) was 10 µM and the TGI (COLO 205 colon) was 21.6 µM. It also gave a GI50 (T-47D breast) of 12.2 µM, a TGI (T-47D breast) of 25.8 µM and a GI50 (OVCAR-3 ovarian) of 3.19 µM. For the same compound, the TGI (OVCAR-3 ovarian) was 16.3 µM, the GI50 (CCRF-CEM leukemia) was 4.89 µM and the TGI (CCRF-CEM leukemia) was 20.8 µM. The GI50 (BT-549 breast) was 2.22 µM, the TGI (BT-549 breast) was 11.2 µM and the GI50 (UACC-62 melanoma) was 5.57 µM. For the same compound, the TGI (UACC-62 melanoma) was 19 µM, the GI50 (K-562 leukemia) was 3.37 µM and the TGI (K-562 leukemia) was 11.7 µM. It also gave a GI50 (SK-MEL-28 melanoma) of 11.2 µM, a TGI (SK-MEL-28 melanoma) of 23.2 µM and a GI50 (SNB-75 CNS) of 1.67 µM. The TGI (SNB-75 CNS) was 16.4 µM, the GI50 (SK-MEL-2 melanoma) was 3.26 µM and the TGI (SK-MEL-2 melanoma) was 16.1 µM. For the same compound, the GI50 (NCI-H226 lung) was 14.9 µM, the TGI (NCI-H226 lung) was 28.7 µM and the GI50 (RPMI-8226 leukemia) was 10.8 µM. For the same compound, the TGI (RPMI-8226 leukemia) was 27 µM, the GI50 (OVCAR-8 ovarian) was 14.1 µM and the TGI (OVCAR-8 ovarian) was 27.1 µM. The GI50 (U251 CNS) was 10.7 µM, the TGI (U251 CNS) was 22.6 µM and the GI50 (KM12 colon) was 3.53 µM. For the same compound, the TGI (KM12 colon) was 15 µM, the GI50 (NCI-H460 lung) was 8.73 µM and the TGI (NCI-H460 lung) was 21 µM. The GI50 (SF-268 CNS) was 12.5 µM, the TGI (SF-268 CNS) was 25 µM and the GI50 (LOX IMVI melanoma) was 10.1 µM. It also gave a TGI (LOX IMVI melanoma) of 21.8 µM, a GI50 (IGROV1 ovarian) of 5.75 µM and a TGI (IGROV1 ovarian) of 18.6 µM. The GI50 (HOP-62 NSCLC) was 12.3 µM, the TGI (HOP-62 NSCLC) was 24.8 µM and the GI50 (M14 melanoma) was 4.79 µM. For the same compound, the TGI (M14 melanoma) was 18.6 µM, the GI50 (SF-295 CNS) was 4.24 µM and the TGI (SF-295 CNS) was 16.6 µM. The GI50 (MOLT-4 leukemia) was 4.48 µM, the TGI (MOLT-4 leukemia) was 19.9 µM and the GI50 (SR leukemia) was 2.97 µM. For the same compound, the TGI (SR leukemia) was 12.6 µM, the GI50 (HS 578T breast) was 2.35 µM and the TGI (HS 578T breast) was 17.1 µM. For the same compound, the GI50 (HCT-116 colon) was 4.3 µM, the TGI (HCT-116 colon) was 17.7 µM and the GI50 (HOP-92 NSCLC) was 8.77 µM. It also gave a TGI (HOP-92 NSCLC) of 21.1 µM, a GI50 (NCI/ADR-RES ovarian) of 2.76 µM and a TGI (NCI/ADR-RES ovarian) of 13.4 µM. For the same compound, the GI50 (EKVX NSCLC) was 3.54 µM, the TGI (EKVX NSCLC) was 18.9 µM and the GI50 (UACC-257 melanoma) was 10.3 µM. The TGI (UACC-257 melanoma) was 22 µM, the GI50 (SW-620 colon) was 2.88 µM and the TGI (SW-620 colon) was 15.2 µM. The GI50 (MDA-MB-231 breast) was 3.12 µM and the TGI (MDA-MB-231 breast) was 17.9 µM.
